Results taken from patent US9937220B2, “Anti-diabetic nutraceutical composition from palm leaf extract” (priority 2009, dated 2018).

Tested on: STZ-induced diabetic rats
Assay: Body weight of STZ-induced diabetic rats
Format: in vivo, rat
Details: glibenclamide treated group (30 mg/kg)
Method: Adult normal and streptozotocin-induced diabetic male Sprague Dawley rats were randomly divided into groups. Palm leaf aqueous and alcoholic extracts (PLE) were fed to normal and STZ-induced diabetic rats at 50-200 mg/kg for 8 weeks. Blood sugar levels from fasting rats were monitored weekly. Untreated rats were used as negative control and glibenclamide (30 mg/kg) treated rats used as positive control.

## COc1ccc(Cl)cc1C(=O)NCCc1ccc(S(=O)(=O)NC(=O)NC2CCCCC2)cc1 [glibenclamide]
  changes in body weight: Significant changes in body weight
